Experimental data: PubChem BioAssay (NCI)
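Protocol summary: plate cells (96-well), add compound at 5 concentrations, incubate 48 h, interpolate endpoints linearly. TGI: total growth inhibition.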

Tests used:
Assay in all cases: NCI anticancer screen, dose series, 48 h
OVCAR-5 ovarian = test system: OVCAR-5 ovarian
MALME-3M melanoma = test system: MALME-3M melanoma
UACC-62 melanoma = test system: UACC-62 melanoma
DU-145 prostate = test system: DU-145 prostate
HS 578T breast = test system: HS 578T breast
HL-60(TB) leukemia = test system: HL-60(TB) leukemia
LOX IMVI melanoma = test system: LOX IMVI melanoma
CCRF-CEM leukemia = test system: CCRF-CEM leukemia
SF-539 CNS = test system: SF-539 CNS
MCF7 breast = test system: MCF7 breast
MDA-MB-231 breast = test system: MDA-MB-231 breast
NCI-H226 lung = test system: NCI-H226 lung
SN12C renal = test system: SN12C renal
MOLT-4 leukemia = test system: MOLT-4 leukemia
UACC-257 melanoma = test system: UACC-257 melanoma

| Compound | TGI (OVCAR-5 ovarian) [µM] | TGI (MALME-3M melanoma) [µM] | TGI (UACC-62 melanoma) [µM] | TGI (DU-145 prostate) [µM] | TGI (HS 578T breast) [µM] | TGI (HL-60(TB) leukemia) [µM] | TGI (LOX IMVI melanoma) [µM] | TGI (CCRF-CEM leukemia) [µM] | TGI (SF-539 CNS) [µM] | TGI (MCF7 breast) [µM] | TGI (MDA-MB-231 breast) [µM] | TGI (NCI-H226 lung) [µM] | TGI (SN12C renal) [µM] | TGI (MOLT-4 leukemia) [µM] | TGI (UACC-257 melanoma) [µM] |
| --- | --- | --- | --- | --- | --- | --- | --- | --- | --- | --- | --- | --- | --- | --- | --- |
| CC(C)(C)[Si](C)(C)OCC1OC(n2cc(F)c(=O)[nH]c2=O)CC1O[Si](C)(C)C(C)(C)C (stereo not drawn) | 33 | 31.2 | 15.7 | 11.3 | 26.4 | 12.5 | 20 | 10.2 | 30.7 | 24.9 | 22 | 42.9 | 9.43 | 22 | 15.9 |
| NC(=O)Cc1ncn(-c2ccccc2)n1 | > 100 | > 100 | > 100 | > 100 | > 100 | > 100 | > 100 | > 100 | > 100 | > 100 | > 100 | > 100 | > 100 | > 100 | > 100 |
| COc1ccc(N2C(=O)CSC2c2cc3cc(Br)ccc3nc2Cl)cc1 (stereo not drawn) | > 50 | > 50 | > 50 | > 50 | > 50 | > 50 | > 50 | > 50 | > 50 | > 50 | > 50 | > 50 | > 50 | > 50 | > 50 |
| COc1cc(C2SCC(=O)N2c2ccc(-c3ccc(-n4c(-c5ccccc5)nc5ccccc5c4=O)cc3)cc2)ccc1O (stereo not drawn) | > 100 | > 100 | > 100 | > 100 | > 100 | > 100 | > 100 | > 100 | > 100 | > 100 | > 100 | > 100 | > 100 | > 100 | > 100 |
| COc1ccc(C2=NN(C(=O)c3ccccc3)C(O)(c3cc(F)c(Cl)cc3Cl)C2)cc1OC (stereo not drawn) | > 100 | > 100 | > 100 | > 100 | > 100 | > 100 | > 100 | > 100 | > 100 | > 100 | > 100 | > 100 | > 100 | > 100 | > 100 |
| NCCCCC(N)C(=O)N1CCN(c2nc(N3CCCC3)c3nc(Cl)c(NCc4ccccc4)nc3n2)CC1 (stereo not drawn) | 33.9 | 43.5 | 36.7 | 33.5 | 47.4 | 36.1 | 35.9 | 37.7 | 37.6 | 38.1 | 34.3 | 45.6 | 34.3 | 50.6 | 35.5 |
| CC1CC(=O)N2CCCNC2=C1C#N (stereo not drawn) | – | > 100 | > 100 | > 100 | > 100 | – | > 100 | > 100 | > 100 | > 100 | > 100 | > 100 | > 100 | > 100 | > 100 |
| CC(C)=CCC[C@](C)(O)[C@H]1CC[C@]2(C)[C@@H]1[C@H](O)C[C@@H]1[C@@]3(C)CC[C@H](O[C@@H]4O[C@H](CO)[C@@H](O)[C@H](O)[C@H]4O)C(C)(C)[C@@H]3CC[C@]12C | 49.3 | 34.6 | 31 | 35.1 | 47 | 45.8 | 91.5 | 43.8 | 38.8 | 32.2 | 36.4 | 34.6 | 32.9 | 34.8 | 41.1 |
| COC(=O)c1cc(C)n2c1CS[C@@H]2c1ccccc1 | > 100 | > 100 | – | > 100 | > 100 | > 100 | > 100 | > 100 | – | > 100 | > 100 | 89.1 | > 100 | 71.1 | > 100 |
| Cc1c(C)c(S(=O)(=O)N(CCCCCN)OCCCN)c(C)c2c1OC(C)(C)CC2 | > 55.2 | 28 | 30.3 | > 70.5 | 28.4 | 5.92 | > 44.4 | > 23.5 | > 100 | > 100 | 31.7 | 32.7 | > 100 | 48.5 | 38.6 |
| CSc1c(CC(=O)O)n(Cc2ccccc2)c2ccccc12 | > 100 | > 100 | > 100 | > 100 | > 100 | > 100 | > 100 | > 100 | > 100 | > 100 | > 100 | – | > 100 | > 100 | > 100 |
| COc1ccc(-n2nnc3c(C#N)c(-c4ccccc4)c(C)n3c2=O)cc1 | > 100 | > 100 | > 100 | > 100 | > 100 | 68.2 | > 100 | 58.5 | > 100 | > 100 | 81.6 | > 100 | > 100 | – | > 100 |
| CCCCOP(=O)(OCCCC)/C(C#N)=C/c1ccc(C)o1 | > 100 | 99.2 | > 100 | > 100 | > 100 | – | > 100 | – | > 100 | > 100 | > 100 | 78.8 | > 100 | > 100 | > 100 |
| COc1ccc(OC)c(C2CCCc3c2cnc2nc(N)nc(N)c32)c1 (stereo not drawn) | – | > 100 | > 100 | > 100 | > 100 | > 100 | > 100 | > 100 | > 100 | 0.017 | > 100 | > 100 | > 100 | > 100 | > 100 |
| CCOC(=O)C1c2[nH]c3ccccc3c2CCN1C(=O)c1ccco1 (stereo not drawn) | – | > 10 | > 10 | > 10 | > 10 | > 10 | – | > 10 | > 10 | > 10 | > 10 | – | > 10 | > 10 | > 10 |
